According to US11851428B2, “Activator of TREK (TWIK RElated K+channels) channels” (ONO PHARMACEUTICAL CO., LTD., priority 2016, dated 2023):

molecular target: T1, human TREK-1 (Homo sapiens, UniProt O95069); test: thallium flux assay (TREK1 activation normalized to BL-1249); format: cell-based; conditions: concentration of Example compound 10 μM; normalized to 10 μM BL-1249; CHO-K1 cells stably expressing human TREK-1
T1 construct: expressed in transfected cells
T1 sequence (O95069 1-426): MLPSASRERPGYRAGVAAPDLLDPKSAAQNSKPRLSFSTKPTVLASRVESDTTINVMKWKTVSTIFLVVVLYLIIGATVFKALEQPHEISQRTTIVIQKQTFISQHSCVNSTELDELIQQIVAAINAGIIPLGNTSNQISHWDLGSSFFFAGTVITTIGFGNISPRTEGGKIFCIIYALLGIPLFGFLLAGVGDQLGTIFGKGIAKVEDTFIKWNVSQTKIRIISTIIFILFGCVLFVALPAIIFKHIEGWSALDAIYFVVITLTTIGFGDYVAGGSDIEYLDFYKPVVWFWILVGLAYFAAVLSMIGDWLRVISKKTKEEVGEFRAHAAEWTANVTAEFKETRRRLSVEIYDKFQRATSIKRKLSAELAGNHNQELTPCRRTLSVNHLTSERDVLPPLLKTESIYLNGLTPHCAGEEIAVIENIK
Experimental: The term “thallium flux assay” herein refers to a fluorescence-based assay used to monitor the activity of TREK channels. Thallium is a congener of potassium that readily fluxes through the pore of TREK channels. Thallium flux is measured using a commercially available, thallium-sensitive fluorescent dye called Thallos. The detail method is described below.
Method 1 (Thallium Flux Assay);
CHO-K1 cells stably expressing human TREK-1 or HEK293 cells stably expressing human TREK-2 are plated in 384-well plates, cultured overnight, loaded with Thallos dye the following day, treated with test compounds for 10 min, and then treated with thallium stimulus buffer to initiate thallium flux. The change in fluorescence at 25 seconds after thallium addition is normalized to baseline fluorescence (fluorescent intensity at 25 sec after Tl^+ addition)/(average of fluorescent intensity at pre-read).

SMILES | TREK1 activation RBL-1249 (%)
O=C(NCc1ccc(OC(F)(F)F)c(F)c1)c1ccc2ncnn2c1 [Example 1-23] | 63%
O=C(NCc1ccc(Br)cc1Cl)c1ccc2ncnn2c1 [Example 1-28] | 99%

same assay, conditions: concentration of Example compound 10 μM; normalized to 10 μM BL-1249; CHO-K1 cells stably expressing human TREK-1; read-out: TREK1 activation RBL-1249 (%)

activation at 10 µM | SMILES
63% | O=C(NCc1ccc(OC(F)(F)F)cc1)c1ccc(-n2cncn2)cc1 [4-(1H-1,2,4-triazol-1-yl)-N-[4-(trifluoromethoxy)benzyl]benzamide]
28% | O=C(NCc1ccc(OC(F)(F)F)cc1)c1ccn2cnnc2c1 [Example 1-3, N-[4-(trifluoromethoxy)benzyl][1,2,4]triazolo(4,3-a]pyridine-7-carboxamide]
26% | O=C(NCc1ccc(Cl)cc1Cl)c1ccc2[nH]ncc2c1 [Example 1-6, N-(2,4-dichlorobenzyl)-1H-indazole-5-carboxamide]
90% | O=C(NCc1ccc(C(F)(F)F)cc1Cl)c1ccn2cnnc2c1 [Example 1-31, N-[2-chloro-4-(trifluoromethyl)benzyl][1,2,4]triazolo[4,3-a]pyridine-7-carboxamide]
26% | O=C(NCc1ccc(OC(F)(F)F)cc1)c1cc2cccnc2s1 [Example 1-33, N-(4-(trifluoromethoxy)benzyl]thieno[2,3-b]pyridine-2-carboxamide]
63% | O=C(NCc1ccc(C(F)(F)F)cc1Cl)c1cc2ncccn2n1 [Example 1-47, N-(2-chloro-4-(trifluoromethyl)benzyl]pyrazolo[1,5-a]pyrimidine-2-carboxamide]
66% | O=C(NCc1ccc(OC(F)(F)F)cc1F)c1cc2ncccn2n1 [Example 1-50, N-[2-fluoro-4-(trifluoromethoxy)benzyl]pyrazolo[1,5-a]pyrimidine-2-carboxamide]
75% | O=C(NCc1ccc(OC(F)(F)F)c(F)c1)c1cc2ncccn2n1 [Example 1-52, N-[3-fluoro-4-(trifluoromethoxy)benzyl]pyrazolo[1,5-a]pyrimidine-2-carboxamide]
19% | O=C(NCc1ccc(OC(F)(F)F)cc1)c1ccc2[nH]ncc2c1 [Example 1-71, N-[4-(trifluoromethoxy)benzyl]-1H-indazole-5-carboxamide]
78% | O=C(NCc1ccc(OC(F)(F)F)cc1F)c1cnc2ccnn2c1 [Example 1-81, N-[[2-fluoro-4-(trifluoromethoxy)phenyl]methyl]pyrazolo[1,5-a]pyrimidine-6-carboxamide]
70% | N#Cc1cc(OC(F)(F)F)ccc1CNC(=O)c1ccc2ncnn2c1 [Example 1-89, N-[[2-cyano-4-(trifluoromethoxy)phenyl]methyl]-[1,2,4]triazolo[1,5-a]pyridine-6-carboxamide]
70% | O=C(NCc1ccc(OC(F)F)cc1Cl)c1ccc2ncnn2c1 [Example 1-92, N-[[2-chloro-4-(difluoromethoxy)phenyl]methyl]-[1,2,4]triazolo[1,5-a]pyridine-6-carboxamide]

Second part, the compound before the results:

SMILES | activation at 10 µM
Cc1cc(OC(F)(F)F)ccc1CNC(=O)c1ccc2ncnn2c1 [Example 1, N-[2-Methyl-4-(trifluoromethoxy)benzyl]-[1,2,4]triazolo[1,5-a]pyridine-6-carboxamide] | 88%
O=C(NCc1ccc(Cl)cc1Cl)c1ccc2ncnn2c1 [Example 1-5, N-(2,4-dichlorobenzyl)[1,2,4]triazolo[1,5-a]pyridine-6-carboxamide] | 44%
O=C(NCc1ccc(OC(F)(F)F)cc1F)c1ccc(F)nc1 [Example 1-13, 6-fluoro-N-[2-fluoro-4-(trifluoromethoxy)benzyl]nicotinamide] | 65%
O=C(NCc1ccc(C(F)(F)F)cc1Cl)c1cccc2ncnn12 [Example 1-27, N-[2-chloro-4-(trifluoromethyl)benzyl][1,2,4]triazolo[1,5-a]pyridine-5-carboxamide] | 91%
O=C(NCc1ccc(OC(F)(F)F)cc1F)c1ccn2cnnc2c1 [Example 1-29, N-[2-fluoro-4-(trifluoromethoxy)benzyl][1,2,4]triazolo[4,3-a]pyridine-7-carboxamide] | 80%
O=C(NCc1ccc(OC(F)(F)F)cc1)c1cnc(C(F)(F)F)nc1 [Example 1-34, N-[4-(trifluoromethoxy)benzyl]-2-(trifluoromethyl)-5-pyrimidinecarboxamide] | 33%
O=C(NCc1ccc(OC(F)(F)F)cc1)c1ccc2nccnc2c1 [Example 1-36, N-[4-(trifluoromethoxy)benzyl]-6-quinoxalinecarboxamide] | 26%
Cc1cc(OC(F)(F)F)ccc1CNC(=O)c1ccn2cnnc2c1 [Example 1-45, N-[2-methyl-4-(trifluoromethoxy)benzyl][1,2,4]triazolo[4,3-a]pyridine-7-carboxamide] | 85%
Cc1cc(OC(F)(F)F)ccc1CNC(=O)c1cc2ncccn2n1 [Example 1-46, N-[2-methyl-4-(trifluoromethoxy)benzyl]pyrazolo[1,5-a]pyrimidine-2-carboxamide] | 67%
COc1cc(OC(F)(F)F)ccc1CNC(=O)c1cc2ncccn2n1 [Example 1-51, N-[2-methoxy-4-(trifluoromethoxy)benzyl]pyrazolo[1,5-a]pyrimidine-2-carboxamide] | 65%
O=C(NCc1ccc(Br)cc1Cl)c1ccc2[nH]nnc2c1 [Example 1-76, N-[(4-bromo-2-chlorophenyl)methyl]-1H-benzotriazole-5-carboxamide] | 101%
O=C(NCc1ccc(Br)cc1Cl)c1ccc2snnc2c1 [Example 1-86, N-[(4-bromo-2-chlorophenyl)methyl]-1,2,3-benzothiadiazole-5-carboxamide] | 75%
Cc1cc(OC(F)(F)F)ccc1CNC(=O)c1ccn2ccnc2c1 [Example 1-87, N-[[2-methyl-4-(trifluoromethoxy)phenyl]methyl]imidazo[1,2-a]pyridine-7-carboxamide] | 72%
COc1cc(OC(F)(F)F)ccc1CNC(=O)c1ccc(-n2cncn2)cc1 [Example 2-1, N-[2-methoxy-4-(trifluoromethoxy)benzyl]-4-(1H-1,2,4-triazol-1-yl)benzamide] | 54%
O=C(NCc1ccc(S(F)(F)(F)(F)F)cc1)c1ccc(-n2cncn2)cc1 [Example 2-2, N-[4-(pentafluoro-λ^6-sulfanyl)benzyl]-4-(1H-1,2,4-triazol-1-yl)benzamide] | 41%
O=C(NCc1ccc(OC(F)(F)F)c(F)c1)c1ccc(-n2cncn2)cc1 [Example 2-3, N-[3-fluoro-4-(trifluoromethoxy)benzyl]-4-(1H-1,2,4-triazol-1-yl)benzamide] | 72%

same assay, conditions: concentration of Example compound 30 μM; normalized to 10 μM BL-1249; CHO-K1 cells stably expressing human TREK-1

TREK1 activation RBL-1249 (%) | SMILES
38% | Cc1cc(OC(F)(F)F)ccc1CNC(=O)c1cc(F)nc(F)c1 [Example 1-55, 2-6-difluoro-N-[2-methyl-4-(trifluorothoxy)benzyl]isonicotinamide]

same assay, conditions: concentration of Example compound 30 μM; normalized to 10 μM BL-1249; CHO-K1 cells stably expressing human TREK-1; read-out: TREK1 activation RBL-1249 (%)

activation at 30 µM | SMILES
63% | O=C(NCc1ccc(OC(F)(F)F)cc1F)c1ccnc(F)c1 [Example 1-12, 2-fluoro-N-[2-fluoro-4-(trifluoromethoxy)benzyl]isonicotinamide]
73% | O=C(NCc1ccc(OC(F)(F)F)cc1)c1ccn2ncnc2c1 [Example 1-21, N-[4-(trifluoromethoxy)benzyl][1,2,4]triazolo[1,5-a]pyridine-7-carboxamide]
74% | COc1cc(OC(F)(F)F)ccc1CNC(=O)c1ccc2ncnn2c1 [Example 1-26, N-[2-methoxy-4-(trifluoromethoxy)benzyl][1,2,4]triazolo[1,5-a]pyridine-6-carboxamide]
76% | COc1cc(OC(F)(F)F)ccc1CNC(=O)c1ccn2cnnc2c1 [Example 1-30, N-[2-methoxy-4-(trifluoromethoxy)benzyl][1,2,4]triazolo[4,3-a]pyridine-7-carboxamide]
41% | O=C(NCc1ccc(OC(F)(F)F)cc1)c1cn[nH]c(=O)c1 [Example 1-42, 6-oxo-N-[4-(trifluoromethoxy)benzyl]-1,6-dihydro-4-pyridazinecarboxamide]
25% | O=C(NCc1ccc(OC(F)(F)F)cc1)c1nc2ncccn2n1 [Example 1-44, N-[4-(trifluoromethoxy)benzyl][1,2,4]triazolo[1,5-a]pyrimidine-2-carboxamide]
48% | Cc1cc(OC(F)(F)F)ccc1CNC(=O)c1nc2ncccn2n1 [Example 1-61, N-[2-methyl-4-(trifluoromethoxy)benzyl][1,2,4]triazolo[1,5-a]pyrimidine-2-carboxamide]
60% | O=C(NCc1ccc(OC(F)(F)F)cc1)c1ccc2[nH]cnc2c1 [Example 1-72, N-[4-(trifluoromethoxy)benzyl]-1H-benzimidazole-5-carboxamide]
